According to patent publication US12624127B2, “Chitosan derivatives as antimicrobials and synergistic combinations thereof” (priority 2022, dated 2026):

Key:
A. baumannii AB-1 [1] = assay: Checkerboard synergy assay of 2,6-DAC with antibiotics; assay type: cell-based, Acinetobacter baumannii; conditions: for Synergy with 2,6-DAC (in words) / MIC, antibiotic in combination: A. baumannii AB-1; for MIC, antibiotic in combination: antibiotic concentration in combination with 2,6-DAC (8 μg/mL); for MIC of antibiotic +16 μg/mL 2,6-DAC / MIC of antibiotic +32 μg/mL 2,6-DAC: A. baumannii AB-1 (MDR)
Method: (§1) 2,6-DAC was screened as a potentiating agent for synergistic combinations with antibiotics against both A. baumannii AB-1 and MRSA USA300. Before the synergy tests, the MIC values of antibiotics were tested against MDR A. baumannii AB-1 and MRSA USA300 by following the MIC determination protocol in Example 4. Then, the synergy of 2,6-DAC with antibiotics was determined.
(§2) Synergy was measured by time killing assay and checkerboard assay. Time killing assay was performed by following the protocol in Example 4. Checkerboard susceptibility assays to measure combinations of antimicrobials were performed in MHB at 37° C. as previously described (K. R. V. Thappeta et al., ACS Infect. Dis. 2020, 6, 1228-1237; and Z. Si et al., Angew. Chem. Int. Ed. 2020, 59, 6819-6826). The fractional inhibitory concentration (FIC) indices were calculated according to the following formula: […]

A. baumannii = assay: MIC determination, broth micro dilution; assay type: cell-based, Acinetobacter baumannii; conditions: A. baumannii AB-1, antibiotic alone; for MIC: Acinetobacter baumannii, read-out: MIC of antibiotic without 2,6-DAC
Method: (§3) MIC values were determined using a broth micro dilution method. Bacteria cells were grown overnight at 37° C. in MHB to a mid-log phase (OD600 between 0.4-0.5 for each organism) and diluted in MHB to 10^5 CFU/mL. […] 50 μL of the 1-5×10^5 CFU/mL bacterial cultures (final concentration) was aliquoted into 96-well microtiter plates and mixed with 50 μL of two-fold dilutions of the polymer or antibiotics and incubated for 16-18 h at 37° C. with shaking at 200 rpm.
as §1

MRSA = assay: MIC determination, broth micro dilution; assay type: cell-based; conditions: MRSA USA300; for MIC: Staphylococcus aureus, read-out: MIC of antibiotic alone / without 2,6-DAC
Method: as §3, §1

MRSA USA300 = assay: Checkerboard synergy assay of 2,6-DAC with antibiotics; assay type: cell-based; conditions: for MIC, antibiotic in combination: antibiotic concentration in combination with 2,6-DAC
Method: as §1, §2

A. baumannii AB-1 [2] = assay: Time killing assay; assay type: cell-based, Acinetobacter baumannii; conditions: for Killing of bacteria by single agent (in words): sub-inhibitory concentration, alone, 24 h
Method: The plates were sealed and incubated at 37° C. with shaking at 200 rpm.
At 0, 0.5, 1, 2, 3, 5, and 24 h post-inoculation, each well was thoroughly mixed with a multi-channel pipette and 20 μL of sample was removed, serially diluted in sterile PBS, plated on LB agar plates, and incubated at 37° C. for 12 h. Colonies were counted to determine the CFU/mL at each time point.
as §2

Molecule | MIC (A. baumannii) | MIC (MRSA) | Synergy with 2,6-DAC (in words) (MRSA USA300) | MIC of antibiotic +16 μg/mL 2,6-DAC (A. baumannii AB-1 [1]) | MIC of antibiotic +32 μg/mL 2,6-DAC (A. baumannii AB-1 [1]) | also measured
NCC[C@H](O)C(=O)N[C@@H]1C[C@H](N)[C@@H](O[C@H]2O[C@H](CN)[C@@H](O)[C@H](O)[C@H]2O)[C@H](O)[C@H]1O[C@H]1O[C@H](CO)[C@@H](O)[C@H](N)[C@H]1O [Amikacin] | > 128 µg/mL | 1.56 µg/mL | no synergy |  |  | Synergy with 2,6-DAC (in words) (A. baumannii AB-1 [1]): synergistic activity; MIC, antibiotic in combination (A. baumannii AB-1 [1]): 2 µg/mL; MIC of antibiotic without 2,6-DAC (A. baumannii): >128 µg/mL; Bactericidal efficacy, combination with 2,6-DAC (A. baumannii AB-1 [2]; 2,6-DAC 0.5×MIC + amikacin 0.002×MIC): 4 log10; Killing of bacteria by single agent (in words) (A. baumannii AB-1 [2]): no killing of bacteria
CC1(C)S[C@@H]2[C@H](NC(=O)[C@H](N)c3ccc(O)cc3)C(=O)N2[C@H]1C(=O)O [Amoxicillin] | > 128 µg/mL |  |  | 128 µg/mL | 16 µg/mL | 
CC1(C)S[C@@H]2[C@H](NC(=O)[C@H](N)c3ccccc3)C(=O)N2[C@H]1C(=O)O [Ampicillin] |  | 4 µg/mL |  |  |  | MIC, antibiotic in combination (MRSA USA300): 2 µg/mL
CC[C@H]1OC(=O)[C@H](C)[C@@H](O[C@H]2C[C@@](C)(OC)[C@@H](O)[C@H](C)O2)[C@H](C)[C@@H](O[C@@H]2O[C@H](C)C[C@H](N(C)C)[C@H]2O)[C@](C)(O)C[C@@H](C)CN(C)[C@H](C)[C@@H](O)[C@]1(C)O [Azithromycin] | 128 µg/mL |  |  | 64 µg/mL | 1 µg/mL | 
CC1(C)S[C@@H]2[C@H](NC(=O)C(C(=O)O)c3ccccc3)C(=O)N2[C@H]1C(=O)O (stereo partly drawn) [Carbenicillin] |  | 8 µg/mL |  |  |  | MIC, antibiotic in combination (MRSA USA300): 2 µg/mL
CO[C@@]1(NC(=O)Cc2cccs2)C(=O)N2C(C(=O)O)=C(COC(N)=O)CS[C@@H]21 [Cefoxitin] | > 128 µg/mL |  |  | 128 µg/mL | 8 µg/mL | 
CC(C)(O/N=C(\C(=O)N[C@@H]1C(=O)N2C(C(=O)[O-])=C(C[n+]3ccccc3)CS[C@H]12)c1csc(N)n1)C(=O)O [Ceftazidime] | > 128 µg/mL | 16 µg/mL | no synergy | 128 µg/mL | 2 µg/mL | 
CO/N=C(\C(=O)N[C@@H]1C(=O)N2C(C(=O)O)=C(CSc3nc(=O)c(=O)[nH]n3C)CS[C@H]12)c1csc(N)n1 [Ceftriaxone] | > 128 µg/mL | 16 µg/mL | no synergy | 128 µg/mL | 2 µg/mL | 
CC(=O)OCC1=C(C(=O)O)N2C(=O)[C@@H](NC(=O)Cc3cccs3)[C@H]2SC1 [Cephalothins] |  |  |  | 128 µg/mL | 2 µg/mL | MIC of antibiotic without 2,6-DAC (A. baumannii): >128 µg/mL
O=C(N[C@H](CO)[C@H](O)c1ccc([N+](=O)[O-])cc1)C(Cl)Cl [Chloramphenicol] |  | 4 µg/mL | no synergy |  |  | 
O=C(O)c1cn(C2CC2)c2cc(N3CCNCC3)c(F)cc2c1=O [Ciprofloxacin] |  | 8 µg/mL | no synergy |  |  | 
C[C@@H](O)[C@H]1C(=O)N2C(C(=O)O)=C(S[C@@H]3CN[C@H](CNS(N)(=O)=O)C3)[C@H](C)[C@H]12 [Doripenem] | 32 µg/mL |  |  | 4 µg/mL | ≤2 µg/mL | 
C[C@@H](O)[C@H]1C(=O)N2C(C(=O)O)=C(S[C@@H]3CN[C@H](C(=O)Nc4cccc(C(=O)O)c4)C3)[C@H](C)[C@H]12 [Ertapenem] | > 128 µg/mL |  |  | 4 µg/mL | 2 µg/mL | 
CC[C@H]1OC(=O)[C@H](C)[C@@H](O[C@H]2C[C@@](C)(OC)[C@@H](O)[C@H](C)O2)[C@H](C)[C@@H](O[C@@H]2O[C@H](C)C[C@H](N(C)C)[C@H]2O)[C@](C)(O)C[C@@H](C)C(=O)[C@H](C)[C@@H](O)[C@]1(C)O [Erythromycin] | > 128 µg/mL |  |  | 64 µg/mL | 4 µg/mL | 
C[C@@H](O)[C@H]1C(=O)N2C(C(=O)O)=C(SCCN=CN)C[C@H]12 [Imipenem] | 64 µg/mL |  |  | 8 µg/mL | 1 µg/mL | 
C[C@H]1COc2c(N3CCN(C)CC3)c(F)cc3c(=O)c(C(=O)O)cn1c23 [Levofloxacin] | 4 µg/mL |  |  | 2 µg/mL | ≤1 µg/mL | 
C[C@@H](O)[C@H]1C(=O)N2C(C(=O)O)=C(S[C@@H]3CN[C@H](C(=O)N(C)C)C3)[C@H](C)[C@H]12 [Meropenem] | 64 µg/mL | 1 µg/mL |  | 4 µg/mL | 1 µg/mL | MIC, antibiotic in combination (MRSA USA300): 0.5 µg/mL
CC1COc2c(N3CCN(C)CC3)c(F)cc3c(=O)c(C(=O)O)cn1c23 (stereo not drawn) [Ofloxacin] | 8 µg/mL |  |  | 8 µg/mL | 4 µg/mL | 
CCN1CCN(C(=O)N[C@@H](C(=O)N[C@@H]2C(=O)N3[C@@H]2SC(C)(C)[C@@H]3C(=O)O)c2ccccc2)C(=O)C1=O [Piperacillin] |  | 4 µg/mL | no synergy |  |  | 
C[C@]1(Cn2ccnn2)[C@H](C(=O)O)N2C(=O)C[C@H]2S1(=O)=O [Tazobactam] | 64 µg/mL |  |  |  |  | Synergy with 2,6-DAC (in words) (A. baumannii AB-1 [1]): synergistic activity; MIC, antibiotic in combination (A. baumannii AB-1 [1]): 16 µg/mL; Bactericidal efficacy, combination with 2,6-DAC (A. baumannii AB-1 [2]; 2,6-DAC 0.5×MIC + tazobactam 0.06×MIC): 4 log10; Killing of bacteria by single agent (in words) (A. baumannii AB-1 [2]): no killing of bacteria
NC[C@H]1O[C@H](O[C@H]2[C@H](O)[C@@H](O[C@H]3O[C@H](CO)[C@@H](O)[C@H](N)[C@H]3O)[C@H](N)C[C@@H]2N)[C@H](N)C[C@@H]1O [Tobramycin] | > 128 µg/mL | 1 µg/mL |  |  |  | Synergy with 2,6-DAC (in words) (A. baumannii AB-1 [1]): synergistic activity; MIC, antibiotic in combination (A. baumannii AB-1 [1]): 2 µg/mL; MIC of antibiotic without 2,6-DAC (A. baumannii): >128 µg/mL; MIC, antibiotic in combination (MRSA USA300): 0.25 µg/mL; Reduction, combination with 2,6-DAC (A. baumannii AB-1 [2]; 2,6-DAC 0.5×MIC + tobramycin 0.002×MIC): 2 log10; Killing of bacteria by single agent (in words) (A. baumannii AB-1 [2]): no killing of bacteria
COc1cc(Cc2cnc(N)nc2N)cc(OC)c1OC [Trimethoprim] |  |  | no synergy |  |  | 
Colistin |  |  | no synergy |  |  | MIC of antibiotic alone / without 2,6-DAC (MRSA): 50 µg/mL
Polymyxin B |  |  | no synergy |  |  | MIC of antibiotic alone / without 2,6-DAC (MRSA): 32 µg/mL
Ramoplanin |  |  |  | 128 µg/mL | 2 µg/mL | MIC of antibiotic without 2,6-DAC (A. baumannii): >128 µg/mL
